From ChEMBL document CHEMBL1201862, “PubChem BioAssay data set” (2004)
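Values below derive from 48-hour exposures of cells grown in 96-well plates, with endpoints linearly interpolated between the two concentrations bracketing the appropriate inhibition level. GI50 marks 50% less growth.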 Calls of active or inactive are those of the source. No stated cut-off is given here; in the data, active = GI50 up to about 1.1 µM and inactive = higher. Where a SMILES comes first, the peptide text is derived from it. [ ]: non-standard residue; d: D form. The star is where a group is joined. Phe(2-OMe) = COc1ccccc1C[CH](N)C(=O)O; Cbz = O=C(OCc1ccccc1)*; OBn = c1ccc(CO*)cc1

Key:
Assay in all cases: inhibition of tumour cell growth, NCI panel, 48 h
A498 = test system: A498
ACHN = test system: ACHN
CCRF-CEM = test system: CCRF-CEM
HOP-62 = test system: HOP-62
HOP-92 = test system: HOP-92
IGROV-1 = test system: IGROV-1
KM12 = test system: KM12
LOX IMVI = test system: LOX IMVI
M14 = test system: M14
MDA-MB-435 = test system: MDA-MB-435
NCI-H460 = test system: NCI-H460
NCI-H522 = test system: NCI-H522
OVCAR-8 = test system: OVCAR-8
SF-295 = test system: SF-295
SK-MEL-5 = test system: SK-MEL-5
SNB-19 = test system: SNB-19
TK-10 = test system: TK-10
UACC-62 = test system: UACC-62
HL-60 = test system: HL-60

Row | SMILES | GI50 (A498) | GI50 (ACHN) | GI50 (CCRF-CEM) | GI50 (HOP-62) | GI50 (HOP-92) | GI50 (IGROV-1) | GI50 (KM12) | GI50 (LOX IMVI) | GI50 (M14) | GI50 (MDA-MB-435) | GI50 (NCI-H460) | GI50 (NCI-H522) | GI50 (OVCAR-8) | GI50 (SF-295) | GI50 (SK-MEL-5) | GI50 (SNB-19) | GI50 (TK-10) | GI50 (UACC-62) | GI50 (HL-60)
1 | CCN(CC)CCn1ncc2c(N)ncnc21 | > 100 µM (inactive) | > 100 µM (inactive) | 34.7 µM (inactive) | > 100 µM (inactive) | > 100 µM (inactive) | > 100 µM (inactive) | > 100 µM (inactive) | > 100 µM (inactive) | > 100 µM (inactive) | > 100 µM (inactive) | > 100 µM (inactive) | > 100 µM (inactive) | > 100 µM (inactive) | > 100 µM (inactive) | > 100 µM (inactive) | > 100 µM (inactive) | > 100 µM (inactive) | > 100 µM (inactive) | –
2 | CC(C)CC12CC3CCC(CNC1=O)C32C (stereo not given) | > 100 µM (inactive) | > 100 µM (inactive) | 35.5 µM (inactive) | > 100 µM (inactive) | > 100 µM (inactive) | > 100 µM (inactive) | > 100 µM (inactive) | > 100 µM (inactive) | > 100 µM (inactive) | – | > 100 µM (inactive) | > 100 µM (inactive) | > 100 µM (inactive) | > 100 µM (inactive) | > 100 µM (inactive) | > 100 µM (inactive) | > 100 µM (inactive) | > 100 µM (inactive) | 31.9 µM (inactive)
3 | CCOC(=O)Nc1nn[nH]c1Cl | > 100 µM (inactive) | – | – | > 100 µM (inactive) | – | > 100 µM (inactive) | 63 µM (inactive) | > 100 µM (inactive) | > 100 µM (inactive) | > 100 µM (inactive) | > 100 µM (inactive) | > 100 µM (inactive) | > 100 µM (inactive) | – | > 100 µM (inactive) | – | > 100 µM (inactive) | > 100 µM (inactive) | –
4 | NS(=O)(=O)c1nnc(NS(=O)(=O)c2ccccc2C(=O)O)s1 | > 100 µM (inactive) | > 100 µM (inactive) | – | > 100 µM (inactive) | > 100 µM (inactive) | – | > 100 µM (inactive) | > 100 µM (inactive) | > 100 µM (inactive) | > 100 µM (inactive) | > 100 µM (inactive) | > 100 µM (inactive) | > 100 µM (inactive) | > 100 µM (inactive) | > 100 µM (inactive) | > 100 µM (inactive) | > 100 µM (inactive) | > 100 µM (inactive) | –
5 | Cc1cc(N(CCC#N)CCC#N)ccc1C(/N=N/c1ccc(C(=O)O)cc1)=N\NC(=O)c1ccccc1 | 22.3 µM (inactive) | 59.7 µM (inactive) | 30.4 µM (inactive) | 32.4 µM (inactive) | – | 50.2 µM (inactive) | 18.2 µM (inactive) | – | 36.6 µM (inactive) | 3.94 µM (inactive) | 22.9 µM (inactive) | 13.2 µM (inactive) | 28.1 µM (inactive) | 23.9 µM (inactive) | 19.5 µM (inactive) | 50.8 µM (inactive) | > 100 µM (inactive) | 39.8 µM (inactive) | –
6 | Clc1nc(NCCc2ccccc2)c2ncn(-c3ccccc3)c2n1 | 17.3 µM (inactive) | 29.4 µM (inactive) | – | 20.6 µM (inactive) | – | 40.8 µM (inactive) | 16.8 µM (inactive) | 21.3 µM (inactive) | 21.5 µM (inactive) | 16.3 µM (inactive) | 15.3 µM (inactive) | 16 µM (inactive) | 28.4 µM (inactive) | 25.3 µM (inactive) | 18.5 µM (inactive) | 37 µM (inactive) | 21.1 µM (inactive) | 20.8 µM (inactive) | –
7 | COc1ccc2c(c1)C(N)CC2=O (stereo not given) | > 100 µM (inactive) | > 100 µM (inactive) | > 100 µM (inactive) | > 100 µM (inactive) | > 100 µM (inactive) | > 100 µM (inactive) | > 100 µM (inactive) | – | > 100 µM (inactive) | > 100 µM (inactive) | – | > 100 µM (inactive) | > 100 µM (inactive) | > 100 µM (inactive) | > 100 µM (inactive) | > 100 µM (inactive) | > 100 µM (inactive) | > 100 µM (inactive) | –
8 | N#Cc1nc(CN2C(=O)c3ccccc3C2=O)oc1N | > 100 µM (inactive) | > 100 µM (inactive) | > 100 µM (inactive) | > 100 µM (inactive) | > 100 µM (inactive) | > 100 µM (inactive) | > 100 µM (inactive) | – | > 100 µM (inactive) | > 100 µM (inactive) | > 100 µM (inactive) | > 100 µM (inactive) | > 100 µM (inactive) | > 100 µM (inactive) | > 100 µM (inactive) | – | > 100 µM (inactive) | – | –
9 | O=c1[nH]nc(Cc2ccccc2)n1/N=C/c1cccs1 | 16 µM (inactive) | > 100 µM (inactive) | > 100 µM (inactive) | > 100 µM (inactive) | – | – | > 100 µM (inactive) | > 100 µM (inactive) | > 100 µM (inactive) | > 100 µM (inactive) | > 100 µM (inactive) | – | > 100 µM (inactive) | > 100 µM (inactive) | – | > 100 µM (inactive) | – | 36 µM (inactive) | –
10 | N#CC(C#N)=C1SC(=N\c2ccccc2)/C(=N/c2ccccc2)N1c1ccccc1 | > 52.2 µM (inactive) | 20 µM (inactive) | 2.09 µM (inactive) | 27.7 µM (inactive) | 6.82 µM (inactive) | 13.9 µM (inactive) | > 38.5 µM (inactive) | 10.7 µM (inactive) | 25.3 µM (inactive) | 10.6 µM (inactive) | 19.2 µM (inactive) | 1.94 µM (inactive) | 22.6 µM (inactive) | 25.2 µM (inactive) | 14.3 µM (inactive) | 40.2 µM (inactive) | 44.1 µM (inactive) | 5.79 µM (inactive) | –
11 | COC(=O)C(Cc1ccccc1OC)NC(=O)C(CC(=O)OCc1ccccc1)NC(=O)OCc1ccccc1 (stereo not given) (Cbz-Asp(OBn)-[Phe(2-OMe)]-OMe; configuration not given here) | 88.1 µM (inactive) | > 100 µM (inactive) | 38 µM (inactive) | > 100 µM (inactive) | > 100 µM (inactive) | > 100 µM (inactive) | > 100 µM (inactive) | – | > 100 µM (inactive) | – | 34.4 µM (inactive) | – | > 100 µM (inactive) | – | > 100 µM (inactive) | > 100 µM (inactive) | > 100 µM (inactive) | 82 µM (inactive) | 34.5 µM (inactive)
12 | CCOC(=O)/C=C(/C(=O)OCC)n1ccc(=O)n(Cc2cn(CCCCOC(C)=O)nn2)c1=O | – | 40.3 µM (inactive) | 16.2 µM (inactive) | > 100 µM (inactive) | 6.65 µM (inactive) | > 100 µM (inactive) | > 100 µM (inactive) | > 100 µM (inactive) | – | > 100 µM (inactive) | > 100 µM (inactive) | 13.6 µM (inactive) | > 100 µM (inactive) | > 100 µM (inactive) | > 100 µM (inactive) | > 100 µM (inactive) | 58.2 µM (inactive) | > 100 µM (inactive) | –
13 | O=C1CCC(=O)C1=NNc1cc(Cl)cc(Cl)c1 | 15.6 µM (inactive) | > 100 µM (inactive) | 47.8 µM (inactive) | > 100 µM (inactive) | > 100 µM (inactive) | > 100 µM (inactive) | > 100 µM (inactive) | > 100 µM (inactive) | > 100 µM (inactive) | – | 71.8 µM (inactive) | – | > 100 µM (inactive) | > 100 µM (inactive) | 61.5 µM (inactive) | > 100 µM (inactive) | > 100 µM (inactive) | > 100 µM (inactive) | 63.5 µM (inactive)
14 | O=C1C2CC=CCC2C(=O)N1n1c(-c2ccccc2)n[nH]c1=O (stereo not given) | > 100 µM (inactive) | > 100 µM (inactive) | > 100 µM (inactive) | > 100 µM (inactive) | > 100 µM (inactive) | > 100 µM (inactive) | > 100 µM (inactive) | > 100 µM (inactive) | > 100 µM (inactive) | > 100 µM (inactive) | > 100 µM (inactive) | > 100 µM (inactive) | > 100 µM (inactive) | > 100 µM (inactive) | > 100 µM (inactive) | > 100 µM (inactive) | > 100 µM (inactive) | > 100 µM (inactive) | –
15 | O=C(Cn1c2ccc(Br)cc2c2nc3ccccc3nc21)NC1CCCCC1 | > 100 µM (inactive) | > 100 µM (inactive) | – | > 100 µM (inactive) | 51.1 µM (inactive) | > 100 µM (inactive) | > 100 µM (inactive) | > 100 µM (inactive) | > 100 µM (inactive) | > 100 µM (inactive) | > 100 µM (inactive) | > 100 µM (inactive) | > 100 µM (inactive) | > 100 µM (inactive) | > 100 µM (inactive) | > 100 µM (inactive) | > 100 µM (inactive) | > 100 µM (inactive) | –
16 | CC1=C(C(=O)OC(C)(C)C)C(c2ccc([N+](=O)[O-])cc2)C(C(=O)OC(C)(C)C)=C(C)N1 | 22.8 µM (inactive) | 21.4 µM (inactive) | 0.187 µM (active) | 23.4 µM (inactive) | 15.4 µM (inactive) | 16.8 µM (inactive) | 20.7 µM (inactive) | 18.5 µM (inactive) | 23.9 µM (inactive) | 27.9 µM (inactive) | 22.2 µM (inactive) | 18.5 µM (inactive) | 20.4 µM (inactive) | 20.2 µM (inactive) | 18.2 µM (inactive) | 34.4 µM (inactive) | 20.1 µM (inactive) | 16.6 µM (inactive) | –
17 | Cc1cc2c(c(C(=O)NCC(=O)O)c1)Oc1c(cc(C)cc1C(=O)NCC(=O)O)S2 | – | > 100 µM (inactive) | > 100 µM (inactive) | > 100 µM (inactive) | > 100 µM (inactive) | > 100 µM (inactive) | > 100 µM (inactive) | > 100 µM (inactive) | > 100 µM (inactive) | > 100 µM (inactive) | – | > 100 µM (inactive) | > 100 µM (inactive) | > 100 µM (inactive) | – | > 100 µM (inactive) | > 100 µM (inactive) | > 100 µM (inactive) | –
